Patent publication US20180186755A1, “LYSYL OXIDASE-LIKE 2 INHIBITORS AND USES THEREOF” (PharmAkea, Inc., priority 2015, published 2018)
Where a name gives a salt, the structure may show the parent alone.

molecular target: T1, human LOXL2 (Homo sapiens, UniProt Q9Y4K0); test: Human LOXL2 amine oxidase activity assay (Amplex Red fluorescence); type: biochemical; conditions: concentrated conditioned media from CHO cells stably expressing human LOXL2; 2 h at 37° C. preincubation; DAP substrate
T1 construct: expressed in transfected cells; 10-20x concentrated conditioned media used as the enzyme source
T1 sequence (Q9Y4K0 26-774): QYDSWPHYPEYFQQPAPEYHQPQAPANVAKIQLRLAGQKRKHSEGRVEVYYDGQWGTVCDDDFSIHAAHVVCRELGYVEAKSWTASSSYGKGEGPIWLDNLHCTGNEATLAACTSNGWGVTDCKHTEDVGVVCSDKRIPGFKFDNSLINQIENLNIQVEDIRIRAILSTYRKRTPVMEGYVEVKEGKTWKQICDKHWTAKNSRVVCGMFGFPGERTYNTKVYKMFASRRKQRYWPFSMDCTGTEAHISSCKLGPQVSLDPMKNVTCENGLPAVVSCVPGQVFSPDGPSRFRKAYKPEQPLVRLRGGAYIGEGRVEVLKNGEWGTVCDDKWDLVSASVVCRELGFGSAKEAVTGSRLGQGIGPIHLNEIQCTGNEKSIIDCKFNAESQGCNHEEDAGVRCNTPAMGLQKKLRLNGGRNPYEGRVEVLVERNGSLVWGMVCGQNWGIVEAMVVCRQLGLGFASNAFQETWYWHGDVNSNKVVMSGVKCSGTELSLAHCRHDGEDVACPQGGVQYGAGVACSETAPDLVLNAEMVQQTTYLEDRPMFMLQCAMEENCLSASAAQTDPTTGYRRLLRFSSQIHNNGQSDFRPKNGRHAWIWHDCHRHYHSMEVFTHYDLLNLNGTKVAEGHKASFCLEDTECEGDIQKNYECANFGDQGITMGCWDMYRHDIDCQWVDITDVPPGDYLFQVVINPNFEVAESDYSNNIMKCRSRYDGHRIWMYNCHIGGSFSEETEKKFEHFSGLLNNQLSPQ
Protocol: Example B-1: Human LOXL2 Amine Oxidase Activity Assay
LOXL2 amine oxidase activity is evaluated by measuring Amplex Red fluorescence using 10-20× concentrated conditioned media from CHO cells stably expressing human LOXL2.
To assay for amine oxidase activity, 10 μL of the concentrated conditioned media is incubated with 2 μL of test compound in DMSO and 73 μL Assay Buffer (50 mM Borate Buffer, pH8) for 2 h at 37° C. After the 2 h incubation, 5 ul of 10 mM 1,5-Diaminopentane (DAP) diluted in Assay Buffer and 10 μl of Amplex Red Mix (8.5 μl Assay Buffer+0.5 μl of 10 mM Amplex Red+1 μl of 500 U/ml Horseradish Peroxidase) are added and the plate mixed and immediately placed on the FlexStaion for fluorescence measurements. Fluorescence is read in kinetic mode every 2 min for 1 hour at excitation=544 and emission=590. The amine oxidase activity is calculated from the slope of the linear portion of the curve.

SMILES	IC50
Cc1n[nH]c2c1CN(C(=O)c1cccc(COc3cc(CN)ncn3)c1)CC2 [Compound 1-89, (3-(((6-(Aminomethyl)pyrimidin-4-yl)oxy)methyl)phenyl)(3-methyl-6,7-dihydro-1H-pyrazolo[4,3-c]pyridin-5(4H)-yl)methanone]	< 100 nM
CN1CC(CNC(=O)c2cccc(COc3cc(CN)ncn3)c2)OC1=O (racemic) [Compound 1-36, Racemic-3-(((6-(aminomethyl)pyrimidin-4-yl)oxy)methyl)-N-((3-methyl-2-oxooxazolidin-5-yl)methyl)benzamide]	< 100 nM
CS(=O)(=O)CCn1ccc2c(Oc3cc(CN)ncn3)cccc21 [Compound 1-25, (6-((1-(2-(Methylsulfonyl)ethyl)-1H-indol-4-yl)oxy)pyrimidin-4-yl)methanamine]	< 100 nM
CS(=O)(=O)CCNC(=O)c1cccc(COc2cc(CN)ncn2)c1 [Compound 1-37, 3-(((6-(Aminomethyl)pyrimidin-4-yl)oxy)methyl)-N-(2-(methylsulfonyl)ethyl)benzamide]	< 100 nM
Cc1n[nH]c2c1CN(C(=O)c1cccc(Oc3cc(CN)ncn3)c1)CC2 [Compound 1-70, (3-((6-(Aminomethyl)pyrimidin-4-yl)oxy)phenyl)(3-methyl-6,7-dihydro-1H-pyrazolo[4,3-c]pyridin-5(4H)-yl)methanone]	< 100 nM
NCc1cc(NCc2cccc(C(=O)N3CCN(c4ccccc4)CC3)c2)ncn1 [Compound 1-100, (3-(((6-(Aminomethyl)pyrimidin-4-yl)amino)methyl)phenyl)(4-phenylpiperazin-1-yl)methanone]	100 to 1000 nM
NCc1cc(OCc2cccc(C(=O)NCc3cc4cc(F)ccc4s3)c2)ncn1 [Compound 1-82, 3-(((6-(Aminomethyl)pyrimidin-4-yl)oxy)methyl)-N-((5-fluorobenzo[b]thiophen-2-yl)methyl)benzamide]	< 100 nM

Results, then the compound that gave them:

IC50	SMILES
< 100 nM	NCc1cc(Oc2cccc(C(=O)N3C[C@@H](O)[C@H](F)C3)c2)ncn1 (racemic) [Compound 1-11, Racemic-trans-(3-((6-(aminomethyl)pyrimidin-4-yl)oxy)phenyl)(3-fluoro-4-hydroxypyrrolidin-1-yl)methanone hydrochloride]
< 100 nM	NCc1cc(Oc2ccc3cc[nH]c3c2)ncn1 [Compound 1-17, (6-((1H-Indol-6-yl)oxy)pyrimidin-4-yl)methanamine]
< 100 nM	NCc1cc(OCc2cccc(C(=O)N[C@@H](CO)c3ccccc3)c2)ncn1 [Compound 1-78, (R)-3-(((6-(Aminomethyl)pyrimidin-4-yl)oxy)methyl)-N-(2-hydroxy-1-phenylethyl)benzamide]
< 100 nM	Cn1cc(-n2ccc3c(Oc4cc(CN)ncn4)cccc32)cn1 [Compound 1-32, (6-((1-(1-Methyl-1H-pyrazol-4-yl)-1H-indol-4-yl)oxy)pyrimidin-4-yl)methanamine]
< 100 nM	COc1ccc(Cn2c(C)cc3c(Oc4cc(CN)ncn4)cccc32)cn1 [Compound 1-30, (6-((1-((6-Methoxypyridin-3-yl)methyl)-2-methyl-1H-indol-4-yl)oxy)pyrimidin-4-yl)methanamine]
< 100 nM	NCc1cc(Nc2cccc(C(=O)Nc3ccccc3)c2)ncn1 [Compound 1-42, 3-((6-(Aminomethyl)pyrimidin-4-yl)amino)-N-phenylbenzamide]
< 100 nM	NCc1cc(Oc2cccc(C(=O)N3CCN(c4ccccn4)CC3)c2)ncn1 [Compound 1-58, (3-((6-(Aminomethyl)pyrimidin-4-yl)oxy)phenyl)(4-(pyridin-2-yl)piperazin-1-yl)methanone]
< 100 nM	NCc1cc(Oc2cccc(Oc3ccccc3)c2)ncn1 [Compound 1-2, (6-(3-Phenoxyphenoxy)pyrimidin-4-yl)methanamine hydrochloride]
< 100 nM	NCc1cc(Oc2cccc(C(=O)N3CCc4c([nH]c5ncccc45)C3)c2)ncn1 [Compound 1-71, (3-((6-(Aminomethyl)pyrimidin-4-yl)oxy)phenyl)(5H-pyrrolo[2,3-b:5,4-c′]dipyridin-7(6H,8H,9H)-yl)methanone]
